Several values for one entry are separate records, joined by “and”; a condition that tells them apart may be missing. Equal entries are not always repeated.
How the values were obtained:
[1] = system: S. aureus cellular mRNA degradation; assay: GeneChip mRNA turnover of RNPA1000 challenged cells; format: cell-based; details: 0.5× MIC, 30 min treatment, versus mock treated cells
Protocol: For half life determinations, S. aureus strain UAMS-1, RN4220 (pCN51; plasmid containing CdCl2 inducible promoter), RN4220 (pRNPA; pCN51 capable of producing full length rnpA mRNA), or RN4220 (pRNPA-A.S.; pCN51 capable of producing rnpA antisense RNA) were grown to mid-exponential or stationary phase, transcription was arrested by the addition of rifampin (200 μg/ml), and aliquots were removed at 0-, 2.5-, 5-, 15- and 30-min post-transcriptional arrest for strain UAMS-1. To conserve reagents, aliquots were removed at 0 and 10 min post-transcriptional arrest for RN4220 derivatives. Plating ensured cultures had not developed rifampin resistance. Each strain and/or growth phase was assessed twice, except for RN4220 pRNPA-A.S. cells which were assessed four times. RNA was isolated from each aliquot, labeled, hybridized to an S. aureus GeneChip (Affymetrix; Santa Clara, Calif.), duplicates were averaged, and the mRNA half-lives of all mRNA species were determined, as previously described (see Anderson et al., J Bacteriol, 188: 6739-6756 (2006); Roberts et al., J Bacteriol, 188: 2593-2603 (2006)). […] Transcript synthesis was then arrested and the transcript titers of mRNA species were measured at 0- and 5-min post-transcriptional arrest (see Anderson et al., J Bacteriol, 188: 6739-6756 (2006); Roberts et al., J Bacteriol, 188: 2593-2603 (2006)). […]

[2] = system: S. aureus strain Smith; assay: acute lethal model of infection; format: in vivo, CD-1 mice; details: for % Survival: 5 days, one value per experiment
Protocol: Because RNPA1000 was not toxic during short- and only mildly toxic during extended-HepG2 exposure, it could serve as an appropriate tool to assess whether RnpA-inhibitory molecules are efficacious in a systemic mouse infection model. […] RNPA1000 was solubilized in 1:1 mixture of DMSO and PEG400; Vancomycin was prepared in water. Animals (5/dose group) were administered 16, 64, and 256 mg/kg or 0.25, 1, 4, and 16 mg/kg of RNPA1000 or Vancomycin, respectively, at 30 min post infection by subcutaneous injection (0.2 ml). The percent surviving animals receiving no treatment, a single dose of Vancomycin, or RnpA-inhibitor was recorded daily over the course of the study (5 days).
Percent survival refers to a consensus of surviving animals following 5 days post-intraperitoneal S. aureus injection and RNPA1000 administration. The number in parentheses indicates the number of times the experiment was repeated. Each member of non-treated control mice expired within 24 hr bacterial inoculation (0 mg/kg). Vancomycin served as a positive control.

Cc1cc(/C=C(/C#N)C(=O)Nc2cccc(Br)c2)c(C)n1-c1ccc(C(=O)O)cc1 [RNPA1000]
mRNA degradation rate of S. aureus cells [1]: reduced the mRNA degradation rate | % Survival ([2]; RNPA1000 16 mg/kg s.c. 30 min post infection): 20; 20(2) % | % Survival ([2]; RNPA1000 64 mg/kg s.c. 30 min post infection, 64 mg/kg): 40% | % Survival ([2]; RNPA1000 256 mg/kg s.c. 30 min post infection, 256 mg/kg): 60% and 40% | ED50 ([2]; Staphylococcus aureus, in Mus musculus, sc, single dose, read-out: median effective dose (ED50)): 64 to 256 mg/kg
